According to PubChem BioAssay (NCI):
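GI50 marks 50% less growth. At the TGI there is no net growth.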

What was measured:
Experiment in all cases: DTP human tumour cell line panel, 384-well format
786-0 renal = system: 786-0 renal
A498 renal = system: A498 renal
A549 NSCLC = system: A549 NSCLC
ACHN renal = system: ACHN renal
BT-549 breast = system: BT-549 breast
CAKI-1 renal = system: CAKI-1 renal
CCRF-CEM leukemia = system: CCRF-CEM leukemia
COLO 205 colon = system: COLO 205 colon
DU-145 prostate = system: DU-145 prostate
EKVX NSCLC = system: EKVX NSCLC
HCC-2998 colon = system: HCC-2998 colon
HCT-15 colon = system: HCT-15 colon
HL-60(TB) leukemia = system: HL-60(TB) leukemia
HOP-62 NSCLC = system: HOP-62 NSCLC
HOP-92 NSCLC = system: HOP-92 NSCLC
HS 578T breast = system: HS 578T breast
HT29 colon = system: HT29 colon
IGROV1 ovarian = system: IGROV1 ovarian
K-562 leukemia = system: K-562 leukemia
KM12 colon = system: KM12 colon
LOX IMVI melanoma = system: LOX IMVI melanoma
M14 melanoma = system: M14 melanoma
MALME-3M melanoma = system: MALME-3M melanoma
MCF7 breast = system: MCF7 breast
MDA-MB-231 breast = system: MDA-MB-231 breast
MDA-MB-435 melanoma = system: MDA-MB-435 melanoma
MDA-MB-468 breast = system: MDA-MB-468 breast
MOLT-4 leukemia = system: MOLT-4 leukemia
NCI-H226 lung = system: NCI-H226 lung
NCI-H23 lung = system: NCI-H23 lung
NCI-H322M lung = system: NCI-H322M lung
NCI-H460 NSCLC = system: NCI-H460 NSCLC
NCI-H522 lung = system: NCI-H522 lung
NCI/ADR-RES ovarian = system: NCI/ADR-RES ovarian
OVCAR-3 ovarian = system: OVCAR-3 ovarian
OVCAR-4 ovarian = system: OVCAR-4 ovarian
OVCAR-5 ovarian = system: OVCAR-5 ovarian
OVCAR-8 ovarian = system: OVCAR-8 ovarian
PC-3 prostate = system: PC-3 prostate
RPMI-8226 leukemia = system: RPMI-8226 leukemia
RXF 393 renal = system: RXF 393 renal
SF-268 CNS = system: SF-268 CNS
SF-295 CNS = system: SF-295 CNS
SF-539 CNS = system: SF-539 CNS
SK-MEL-28 melanoma = system: SK-MEL-28 melanoma
SK-MEL-5 melanoma = system: SK-MEL-5 melanoma
SK-OV-3 ovarian = system: SK-OV-3 ovarian
SN12C renal = system: SN12C renal
SNB-19 CNS = system: SNB-19 CNS
SNB-75 CNS = system: SNB-75 CNS
SR leukemia = system: SR leukemia
SW-620 colon = system: SW-620 colon
T-47D breast = system: T-47D breast
TK-10 renal = system: TK-10 renal
U251 glioblastoma = system: U251 glioblastoma
UACC-257 melanoma = system: UACC-257 melanoma
UACC-62 melanoma = system: UACC-62 melanoma
UO-31 renal = system: UO-31 renal

Compound `CCN1CCN(Cc2ccc(-c3cc4c(N[C@H](C)c5ccccc5)ncnc4[nH]3)cc2)CC1` has a GI50 ([…]-0 renal) of 1070 nM, a TGI (786-0 renal) of 2280 nM and a GI50 (A498 renal) of 1220 nM. The TGI (A498 renal) was 2610 nM, the GI50 (A549 NSCLC) was 1060 nM and the TGI (A549 NSCLC) was 3520 nM. For the same compound, the GI50 (ACHN renal) was 89 nM, the TGI (ACHN renal) was 1520 nM and the GI50 (BT-549 breast) was 1590 nM. It also gave a TGI (BT-549 breast) of 3140 nM, a GI50 (CAKI-1 renal) of 299 nM and a TGI (CAKI-1 renal) of 1880 nM. The GI50 (CCRF-CEM leukemia) was 1830 nM, the TGI (CCRF-CEM leukemia) was 3230 nM and the GI50 (COLO 205 colon) was 1780 nM. The TGI (COLO 205 colon) was 3290 nM, the GI50 (DU-145 prostate) was 1540 nM and the TGI (DU-145 prostate) was 10800 nM. It also gave a GI50 (EKVX NSCLC) of 91.2 nM, a TGI (EKVX NSCLC) of 2340 nM and a GI50 (HCC-2998 colon) of 1560 nM. It also gave a TGI (HCC-2998 colon) of 3040 nM, a GI50 (HCT-15 colon) of 1360 nM and a TGI (HCT-15 colon) of 2750 nM. For the same compound, the GI50 (HL-60(TB) leukemia) was 1660 nM, the TGI (HL-60(TB) leukemia) was 3020 nM and the GI50 (HOP-62 NSCLC) was 1660 nM. For the same compound, the TGI (HOP-62 NSCLC) was 3310 nM, the GI50 (HOP-92 NSCLC) was 1260 nM and the TGI (HOP-92 NSCLC) was 2640 nM. The GI50 (HS 578T breast) was 1480 nM, the TGI (HS 578T breast) was 2830 nM and the GI50 (HT29 colon) was 1450 nM. It also gave a TGI (HT29 colon) of 2930 nM, a GI50 (IGROV1 ovarian) of 120 nM and a TGI (IGROV1 ovarian) of 695 nM. The GI50 (K-562 leukemia) was 217 nM, the TGI (K-562 leukemia) was 550 nM and the GI50 (KM12 colon) was 1920 nM. The TGI (KM12 colon) was 4070 nM, the GI50 (LOX IMVI melanoma) was 1570 nM and the TGI (LOX IMVI melanoma) was 2910 nM. It also gave a GI50 (M14 melanoma) of 1590 nM, a TGI (M14 melanoma) of 2950 nM and a GI50 (MALME-3M melanoma) of 1380 nM. The TGI (MALME-3M melanoma) was 2680 nM, the GI50 (MCF7 breast) was 1490 nM and the TGI (MCF7 breast) was 2970 nM. It also gave a GI50 (MDA-MB-231 breast) of 1560 nM, a TGI (MDA-MB-231 breast) of 3640 nM and a GI50 (MDA-MB-435 melanoma) of 1620 nM. It also gave a TGI (MDA-MB-435 melanoma) of 3040 nM, a GI50 (MDA-MB-468 breast) of 22.7 nM and a TGI (MDA-MB-468 breast) of 60 nM. It also gave a GI50 (MOLT-4 leukemia) of 1340 nM, a TGI (MOLT-4 leukemia) of 2620 nM and a GI50 (NCI-H226 lung) of 1100 nM. For the same compound, the TGI (NCI-H226 lung) was 4440 nM, the GI50 (NCI-H23 lung) was 1520 nM and the TGI (NCI-H23 lung) was 3940 nM. The GI50 (NCI-H322M lung) was 51.7 nM, the TGI (NCI-H322M lung) was 1130 nM and the GI50 (NCI-H460 NSCLC) was 1750 nM. It also gave a TGI (NCI-H460 NSCLC) of 3570 nM, a GI50 (NCI-H522 lung) of 111 nM and a TGI (NCI-H522 lung) of 1320 nM. The GI50 (NCI/ADR-RES ovarian) was 2020 nM, the TGI (NCI/ADR-RES ovarian) was 6110 nM and the GI50 (OVCAR-3 ovarian) was 1320 nM. The TGI (OVCAR-3 ovarian) was 5360 nM, the GI50 (OVCAR-4 ovarian) was 1560 nM and the TGI (OVCAR-4 ovarian) was 5250 nM. For the same compound, the GI50 (OVCAR-5 ovarian) was 440 nM, the TGI (OVCAR-5 ovarian) was 2790 nM and the GI50 (OVCAR-8 ovarian) was 1570 nM. The TGI (OVCAR-8 ovarian) was 3740 nM, the GI50 (PC-3 prostate) was 1850 nM and the TGI (PC-3 prostate) was 8640 nM. It also gave a GI50 (RPMI-8226 leukemia) of 1280 nM, a TGI (RPMI-8226 leukemia) of 2550 nM and a GI50 (RXF 393 renal) of 1420 nM. For the same compound, the TGI (RXF 393 renal) was 2810 nM, the GI50 (SF-268 CNS) was 1490 nM and the TGI (SF-268 CNS) was 3350 nM. It also gave a GI50 (SF-295 CNS) of 1710 nM, a TGI (SF-295 CNS) of 3230 nM and a GI50 (SF-539 CNS) of 1560 nM. The TGI (SF-539 CNS) was 2910 nM, the GI50 (SK-MEL-28 melanoma) was 1590 nM and the TGI (SK-MEL-28 melanoma) was 2940 nM. For the same compound, the GI50 (SK-MEL-5 melanoma) was 1530 nM, the TGI (SK-MEL-5 melanoma) was 2870 nM and the GI50 (SK-OV-3 ovarian) was 349 nM. For the same compound, the TGI (SK-OV-3 ovarian) was 1710 nM, the GI50 (SN12C renal) was 203 nM and the TGI (SN12C renal) was 2070 nM. It also gave a GI50 (SNB-19 CNS) of 2460 nM, a TGI (SNB-19 CNS) of 11600 nM and a GI50 (SNB-75 CNS) of 2040 nM. It also gave a TGI (SNB-75 CNS) of 5980 nM, a GI50 (SR leukemia) of 1760 nM and a TGI (SR leukemia) of 3150 nM. For the same compound, the GI50 (SW-620 colon) was 1770 nM, the TGI (SW-620 colon) was 3510 nM and the GI50 (T-47D breast) was 439 nM. For the same compound, the TGI (T-47D breast) was 2590 nM, the GI50 (TK-10 renal) was 389 nM and the TGI (TK-10 renal) was 2040 nM. The GI50 (U251 glioblastoma) was 1800 nM, the TGI (U251 glioblastoma) was 3620 nM and the GI50 (UACC-257 melanoma) was 1360 nM. For the same compound, the TGI (UACC-257 melanoma) was 2640 nM, the GI50 (UACC-62 melanoma) was 1620 nM and the TGI (UACC-62 melanoma) was 3000 nM. For the same compound, the GI50 (UO-31 renal) was 1330 nM and the TGI (UO-31 renal) was 11900 nM.
